Data from paper PMC9352624, “Going deeper into the toxicokinetics of synthetic cannabinoids: in vitro contribution of human carboxylesterases” (Archives of Toxicology, 2022).
Where “and” joins values, the source holds several entries; their conditions need not be identical. Identical values can stand only once.

Columns and labels:
hCES2 = target: T1, hCES2 (Homo sapiens, UniProt O00748); assay: Initial activity screening with recombinant hCES2; conditions: 100 µM substrate, 30 min, 37 °C, 0.2 µg/µL protein, LC–ITMS; for Relative amount of hydrolysis metabolite formed, hCES2: mean n = 2
T1 sequence (O00748 27-559): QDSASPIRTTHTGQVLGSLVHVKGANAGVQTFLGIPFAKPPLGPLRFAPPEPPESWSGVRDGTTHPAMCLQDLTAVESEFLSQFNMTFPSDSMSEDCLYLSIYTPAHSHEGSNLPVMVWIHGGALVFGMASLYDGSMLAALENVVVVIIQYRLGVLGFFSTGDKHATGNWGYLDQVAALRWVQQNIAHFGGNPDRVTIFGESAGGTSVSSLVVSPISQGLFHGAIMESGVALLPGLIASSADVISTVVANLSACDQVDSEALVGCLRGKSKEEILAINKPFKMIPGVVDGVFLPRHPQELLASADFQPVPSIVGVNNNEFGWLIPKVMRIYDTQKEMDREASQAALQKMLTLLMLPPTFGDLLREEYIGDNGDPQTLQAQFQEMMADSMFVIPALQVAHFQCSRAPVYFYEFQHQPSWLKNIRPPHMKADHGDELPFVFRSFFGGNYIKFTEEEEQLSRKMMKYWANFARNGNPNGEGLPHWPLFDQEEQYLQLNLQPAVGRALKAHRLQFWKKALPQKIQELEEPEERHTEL

hCES1b [1] = target: T2, hCES1b (Homo sapiens, UniProt P23141); assay: Initial activity screening with recombinant hCES1b; conditions: 100 µM substrate, 30 min, 37 °C, 0.2 µg/µL protein, LC–ITMS; for Relative amount of hydrolysis metabolite formed, hCES1b: mean n = 2
T2 sequence (P23141 18-567): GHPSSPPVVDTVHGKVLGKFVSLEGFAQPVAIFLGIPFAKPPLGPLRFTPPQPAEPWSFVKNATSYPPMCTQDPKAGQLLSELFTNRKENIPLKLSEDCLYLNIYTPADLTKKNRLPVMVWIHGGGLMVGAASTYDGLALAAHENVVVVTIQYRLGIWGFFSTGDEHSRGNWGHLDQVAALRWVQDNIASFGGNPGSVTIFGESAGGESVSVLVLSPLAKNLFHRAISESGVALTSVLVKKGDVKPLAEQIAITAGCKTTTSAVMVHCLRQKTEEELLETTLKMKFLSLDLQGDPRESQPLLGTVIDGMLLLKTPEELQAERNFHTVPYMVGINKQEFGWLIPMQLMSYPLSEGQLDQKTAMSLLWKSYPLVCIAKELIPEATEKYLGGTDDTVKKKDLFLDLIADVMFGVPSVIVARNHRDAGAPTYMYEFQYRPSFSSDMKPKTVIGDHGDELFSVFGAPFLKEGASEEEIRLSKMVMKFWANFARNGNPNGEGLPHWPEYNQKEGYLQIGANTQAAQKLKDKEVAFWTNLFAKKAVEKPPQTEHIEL

hCES1c [2] = target: T3, hCES1c (Homo sapiens, UniProt P23141); assay: Initial activity screening with recombinant hCES1c; conditions: 100 µM substrate, 30 min, 37 °C, 0.2 µg/µL protein, LC–ITMS; for Relative amount of hydrolysis metabolite formed, hCES1c: mean n = 2
T3 sequence (P23141 18-566 isoform P23141-3 limits assumed): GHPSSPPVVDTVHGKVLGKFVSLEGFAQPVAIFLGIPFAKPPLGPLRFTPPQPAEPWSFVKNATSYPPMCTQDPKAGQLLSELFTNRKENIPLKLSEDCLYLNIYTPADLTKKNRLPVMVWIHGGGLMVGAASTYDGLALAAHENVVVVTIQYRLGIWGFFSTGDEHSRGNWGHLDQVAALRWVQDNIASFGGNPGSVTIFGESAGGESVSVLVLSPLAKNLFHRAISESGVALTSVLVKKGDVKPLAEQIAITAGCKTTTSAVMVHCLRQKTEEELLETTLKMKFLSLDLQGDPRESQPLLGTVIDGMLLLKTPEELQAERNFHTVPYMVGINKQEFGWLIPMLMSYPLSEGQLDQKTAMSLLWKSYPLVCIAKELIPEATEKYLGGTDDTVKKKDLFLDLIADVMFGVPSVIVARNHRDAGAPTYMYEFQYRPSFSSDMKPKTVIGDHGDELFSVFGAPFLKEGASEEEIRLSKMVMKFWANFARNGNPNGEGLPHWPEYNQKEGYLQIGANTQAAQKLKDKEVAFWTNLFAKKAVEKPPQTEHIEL

[3] = Initial activity screening with pooled human liver microsomes; conditions: 100 µM substrate, 30 min, 37 °C, 2 µg/µL protein, LC–ITMS, mean n = 2
[4] = Initial activity screening with pooled human liver S9 fraction; conditions: 100 µM substrate, 30 min, 37 °C, 2 µg/µL protein, LC–ITMS, mean n = 2
hCES1c [5] = target: T3, hCES1c; assay: Enzyme kinetic studies of ester hydrolysis with hCES1c; conditions: for Clint (relative in vitro intrinsic clearance), hCES1c: Clint = Vmax/Km; for Vmax (relative), ester hydrolysis by hCES1c: peak area ratio metabolite/internal standard
hCES1b [6] = target: T2, hCES1b; assay: Enzyme kinetic studies of ester hydrolysis with hCES1b; conditions: for Clint (relative in vitro intrinsic clearance), hCES1b: Clint = Vmax/Km; for Vmax (relative), ester hydrolysis by hCES1b / Km: ± S.D.; for Vmax (relative), ester hydrolysis by hCES1b: peak area ratio metabolite/internal standard; for Km: read-out: Km, ester hydrolysis by hCES1b, Michaelis–Menten fit, conditions of Table 1

Row | Compound | Hydrolysis of carboxamide linker, hCES2 (hCES2) | Hydrolysis of carboxamide linker, hCES1b (hCES1b [1]) | Hydrolysis of carboxamide/ester in head group, hCES1b (hCES1b [1]) | Relative amount of hydrolysis metabolite formed, hCES1b (hCES1b [1]) | Hydrolysis of carboxamide linker, hCES1c (hCES1c [2]) | Hydrolysis of carboxamide/ester in head group, hCES1c (hCES1c [2]) | Relative amount of hydrolysis metabolite formed, hCES1c (hCES1c [2]) | Relative amount of hydrolysis metabolite formed, pHLM [3] | Relative amount of hydrolysis metabolite formed, pHLS9 [4] | Hydrolysis of carboxamide/ester in head group, hCES2 (hCES2) | Relative amount of hydrolysis metabolite formed, hCES2 (hCES2) [%] | Clint (relative in vitro intrinsic clearance), hCES1c (hCES1c [5]) [AU/min/mg/µM] | Vmax (relative), ester hydrolysis by hCES1c (hCES1c [5]; ± S.D.) | Clint (relative in vitro intrinsic clearance), hCES1b (hCES1b [6]) [AU/min/mg/µM] | Vmax (relative), ester hydrolysis by hCES1b (hCES1b [6]) | Km (hCES1b [6]) [µM] | Km (hCES1c [5]; read-out: Km, ester hydrolysis by hCES1c, ± S.D., Michaelis–Menten fit, conditions of Table 1) [µM]
1 | COC(=O)[C@@H](NC(=O)c1nn(CCCCF)c2ccccc12)C(C)(C)C [MDMB-4F-BINACA, methyl (2S)-2-[1-(4-fluorobutyl)-1H-indazole-3-carbonyl]amino-3,3-dimethylbutanoate] | − | − | + | below 1% | − | + | below 1% | 4.3% | around 1% |  |  |  |  |  |  |  | 
2 | C=CCCCn1nc(C(=O)N[C@H](C(=O)OC)C(C)(C)C)c2ccccc21 [MDMB-4en-PINACA, methyl (2S)-3,3-dimethyl-2-[(1-pent-4-enylindazole-3-carbonyl)amino]butanoate] | − | − | + | below 1% | − | + | below 1% | around 1% | around 1% |  |  |  |  |  |  |  | 
3 | COC(=O)[C@@H](NC(=O)c1cn(Cc2ccc(F)cc2)c2ccccc12)C(C)(C)C [MDMB-FUBICA, methyl (2S)-2-({1-[(4-fluorophenyl)methyl]-1H-indole-3-carbonyl}amino)-3,3-dimethylbutanoate] | − | − | − |  | − | + | below 1% | around 1% | around 1% |  |  |  |  |  |  |  | 
4 | C=CCCCn1cc(C(=O)N[C@H](C(=O)OC)C(C)C)c2ccccc21 [MMB-4en-PICA, methyl (1-(pent-4-en-1-yl)-1H-indole-3-carbonyl)-L-valinate] | − | − | + | 1.5% | − | + | 5.7% |  | 11% | + | 0.2 | 0.04 | 7.57 AU/min/mg and 7.57 ± 0.42 AU/min/mg |  |  |  | 
5 | COC(=O)C(Cc1ccccc1)NC(=O)c1cn(CCCCCF)c2ccccc12 [MPhP-5F-PICA, methyl (1-(5-fluorpentyl)-1H-indole-3-carbonyl)-L-phenylalaninate] | − | − | + | 19% | − | + | 20% |  |  | + | 2.1 | 3.2 | 73.6 AU/min/mg and 73.6 ± 3.8 AU/min/mg | 2.0 | 182 AU/min/mg and 182 ± 13 AU/min/mg |  | 
6 | N-[(2S)-1-amino-3,3-dimethyl-1-oxobutan-2-yl]-1-(cyclohexylmethyl)-1H-indole-3-carboxamide [MMB-CHMICA] | − | − | + | 14% | − | + | 2.3% | 25% |  |  |  |  |  | 0.53 | 20.8 AU/min/mg and 20.8 ± 2.2 AU/min/mg | 39.3 ± 12 | 
7 | N-[(2S)-1-amino-3,3-dimethyl-1-oxobutan-2-yl]-1-[(4-fluorophenyl)methyl]-1H-indazole-3-carboxamide [MMB-FUBINACA] | − | − | + | 78% | − | + | 87% | complete transformation | complete transformation | + | 3.2 | 1.2 | 30.7 ± 0.96 AU/min/mg | 1.7 | 70.3 ± 7.6 AU/min/mg | 40.8 ± 15 | 25.7 ± 3.5
